Assay results from patent US20140057895A1, “INDAZOLE- AND PYRROLOPYRIDINE-DERIVATIVE AND PHARMACEUTICAL USE THEREOF” (priority 2011, published 2014).
Where a name gives a salt, the structure may show the parent alone. Read-outs that look alike come from different tables or passages of the source.

Columns and labels:
human 5-HT4b receptor = target: T1, human 5-HT4b receptor (Homo sapiens, UniProt Q13639); test: Test Example 4: Serotonin 4 (5-HT4) receptor agonist activity assay, cAMP HTRF in CHO cells (Table 100); assay type: cell-based; conditions: mean value; for Emax: CHO, 0.25 h, intrinsic activity, maximal activity of 5-HT defined as 100%, read-out: IA (%); for EC50: concentration showing 50% of IA
T1 construct: expressed in transfected cells; host or cells: CHO cells (G418 selection)
Description: The cAMP measurement test used herein was carried out by using CISBIO HTRF (trademark) cAMP Hirange kit according to the manufacturer's instructions attached therewith.
CHO cells expressing human 5-HT4b receptor were incubated in Medium 1 [DMEM/1% NEAA, 1% penicillin/streptomycin (P/S), 0.2 mg/mL GENETICIN (G418), 10% FBS] at 37° C. under 5% CO2 condition. Then, the cells were put into Medium 2 (DMEM/10000 cut FBS, G-418, P/S, NEAA) for 1 to 2 hours, and collected by treating with trypsin containing EDTA. The collected cells were suspended in Assay Buffer 1 [100 mM Hanks/HEPES buffer (pH 7.4)], the suspended cells were mixed with the testing compound on 384-well plates, and the cells were incubated at 31° C. for 15 minutes. To the cells were added cAMP-cryptate solution and cAMP-d2 solution, and they were incubated at room temperature for 1 hour. Then, time-resolved fluorescence was measured by En Vision (excitation wavelength: 330 nm, fluorescence wavelength: 620/665 nm).
An intrinsic activity of the compound [IA (%)] and a concentration showing 50% of IA [EC50 (nM)] were calculated from the obtained results. In particular, the intrinsic activity (IA) was calculated on the basis of the maximal activity of 5-HT (measured from 10^−11 M to 10^−7 M) defined as 100%.
In the following table, the compounds used in the test are shown in numbers which correspond to the Example numbers above where the preparations of the compounds are described.

5-HT4 receptor = target: T2, 5-HT4 receptor (Cavia porcellus, UniProt O70528); test: Test Example 3: Guinea pig 5-HT4 receptor binding assay, [3H]-GR113808, striatum membranes (Table 98)
T2 construct: striatum was isolated which was cryopreserved at −80° C. until use; from tissue; host or cells: guinea pig (Slc-Hartley) striatum membranes
Description: The guinea pig 5-HT4 receptor binding assay and preparations of receptor membrane preparations herein were carried out according to a method of Grossman et al. [see, British J. Pharmacol., (1993) 109, 618].
Slc-Hartley guinea pigs (body weight 300 g to 400 g) were decapitated to remove brain rapidly, and striatum was isolated which was cryopreserved at −80° C. until use. To the obtained tissues were added fifteen fold of Hepes buffer (50 mM, pH 7.4, 4° C.), and the mixture was homogenized by Teflon (trademark) homogenizer and centrifuged at 48,000×g (4° C.) for 15 minutes. To the resulting precipitate was added Hepes buffer (1 ml) to 30 mg by wet weight of tissues, and the mixture was suspended to give receptor membrane preparations.
To an assay tube were added 0.1 nM [^3H]-GR113808 {chemical name: [1-[2-(methylsulfonylamino) ethyl]-4-piperidinyl]methyl 1-methylindole-3-carboxylate}, receptor membrane preparations, and Hepes buffer (50 mM, pH 7.4, 4° C., 1 ml) containing test compounds or 30 μM serotonin; and the mixture was incubated at 37° C. for 30 minutes. On quenching the reaction, the mixture was rapidly filtered on whatman GF/B filter, which was presoaked in 0.1% polyethyleneimine for 1 hour, by using Brandel cell Harvester, and washed with ice-cooled 50 mM Tris-HCl (pH 7.7, 4 ml) three times. To the filter after filtration was added a liquid scintillator (Ecoscint), and then a radioactivity was determined by a liquid scintillation counter.
50% Inhibition concentrations (IC50) were determined from inhibition rates of test compounds to specific bindings which were obtained by subtracting nonspecific bindings from total binding amounts of [^3H]-GR113808. […]

[1] = Guinea pig 5-HT4 receptor binding assay, [3H]-GR113808, striatum membranes, mean value of each group, read-out: IC50

T2 sequence (O70528 whole entry): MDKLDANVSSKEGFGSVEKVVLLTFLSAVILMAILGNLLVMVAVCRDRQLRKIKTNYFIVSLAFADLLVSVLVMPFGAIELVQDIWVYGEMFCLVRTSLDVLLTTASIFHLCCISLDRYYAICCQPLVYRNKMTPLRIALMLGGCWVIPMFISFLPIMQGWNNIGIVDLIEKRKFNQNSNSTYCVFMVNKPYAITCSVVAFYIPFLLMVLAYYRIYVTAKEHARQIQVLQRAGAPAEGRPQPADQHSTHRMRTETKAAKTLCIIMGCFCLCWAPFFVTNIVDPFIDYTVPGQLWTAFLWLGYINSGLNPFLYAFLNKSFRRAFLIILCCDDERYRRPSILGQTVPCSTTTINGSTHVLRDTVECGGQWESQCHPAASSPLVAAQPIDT
T1 sequence (Q13639 whole entry): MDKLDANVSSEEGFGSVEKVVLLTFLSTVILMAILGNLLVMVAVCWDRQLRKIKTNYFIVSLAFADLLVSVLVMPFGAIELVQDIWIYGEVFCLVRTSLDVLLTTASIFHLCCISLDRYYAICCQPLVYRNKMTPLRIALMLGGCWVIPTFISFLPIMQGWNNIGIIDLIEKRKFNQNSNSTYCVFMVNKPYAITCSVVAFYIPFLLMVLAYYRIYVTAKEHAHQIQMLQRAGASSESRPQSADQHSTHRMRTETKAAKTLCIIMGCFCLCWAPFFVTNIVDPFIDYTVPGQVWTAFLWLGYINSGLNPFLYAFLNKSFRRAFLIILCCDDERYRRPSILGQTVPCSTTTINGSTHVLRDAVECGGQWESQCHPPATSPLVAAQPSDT

Row | Emax (human 5-HT4b receptor) [%] | EC50 (human 5-HT4b receptor) [nM] | IC50 (5-HT4 receptor; [1]) [nM] | Structure (SMILES) | IC50 (5-HT4 receptor) [nM]
1 | 21.6 | 34.2 | 65.4 | COc1ccc(F)c2c1c(C(C)C)nn2-c1noc(C2CCN(C3CCN(C(C)=O)CC3)CC2)n1 [Example 405, 1-(4-{3-[7-fluoro-4-methoxy-3-(propan-2-yl)-1H-indazol-1-yl]-1,2,4-oxadiazol-5-yl}-1,4′-bipiperidin-1′-yl)ethanone] | 
2 | 70.5 | 8.9 | 23.6 | COC(=O)N1CCC(CN2CCC(c3nc(-n4nc(C(C)C)c5ccc(F)c(F)c54)no3)CC2)CC1 [Example 482, methyl 4-[(4-{3-[6,7-difluoro-3-(propan-2-yl)-1H-indazol-1-yl]-1,2,4-oxadiazol-5-yl}piperidin-1-yl)methyl]piperidine-1-carboxylate trifluoroacetate] | 
3 | 63.5 | 3.9 | < 20 | CCc1nn(-c2noc(C3CCN(C4CCN(C(=O)CO)CC4)CC3)n2)c2c(F)cccc12 [compound 244, hydrochloride] | 
4 | 1.6 | 11.9 | 44.7 | CCc1nn(-c2noc(C3CCN(CC4CCOCC4)CC3)n2)c2cc(C)ccc12 [Example 435, 3-ethyl-6-methyl-1-{5-[1-(tetrahydro-2H-pyran-4-ylmethyl)piperidin-4-yl]-1,2,4-oxadiazol-3-yl}-1H-indazole trifluoroacetate] | 
5 | 99 | 28.1 | < 20 | CC(C)c1nn(-c2noc(C3CCN(C4CCC4)C3)n2)c2c(F)cccc12 (stereo not shown) [Example 455, 1-[5-(1-cyclobutylpyrrolidin-3-yl)-1,2,4-oxadiazol-3-yl]-7-fluoro-3-(propan-2-yl)-1H-indazole] | 
6 | 101 | 3.1 | < 20 | CC(C)c1nn(-c2noc(CCCN3CCCCC3)n2)c2c(F)cccc12 [Example 394, 7-fluoro-1-{5-[3-(piperidin-1-yl)propyl]-1,2,4-oxadiazol-3-yl}-3-(propan-2-yl)-1H-indazole] | 
7 | 79 | 12.7 | < 20 | CCc1nn(-c2noc(C3CCN(C[C@H]4CCN(C(=O)CO)C4)CC3)n2)c2c(F)cccc12 [Example 247, 1-[(3R)-3-({4-[3-(3-ethyl-7-fluoro-1H-indazol-1-yl)-1,2,4-oxadiazol-5-yl]piperidin-1-yl}methyl)pyrrolidin-1-yl]-2-hydroxyethanone] | 
8 | 62.3 | 4.6 | < 20 | CCc1nn(-c2noc(C3CCN(C[C@H]4CCN(S(C)(=O)=O)C4)CC3)n2)c2c(F)cccc12 [Example 216, 3-ethyl-7-fluoro-1-[5-(1-{[(3R)-1-(methylsulfonyl)pyrrolidin-3-yl]methyl}piperidin-4-yl)-1,2,4-oxadiazol-3-yl]-1H-indazole] | 
9 | 84 | 3.9 | < 20 | CC(=O)N1CCC(N2CC[C@@H](Cc3nc(-n4nc(C(C)C)c5cccc(F)c54)no3)C2)CC1 [Example 507, 1-{4-[(3S)-3-({3-[7-fluoro-3-(propan-2-yl)-1H-indazol-1-yl]-1,2,4-oxadiazol-5-yl}methyl)pyrrolidin-1-yl]piperidin-1-yl}ethanone] | 
10 |  |  | < 20 | CC(C)c1nn(-c2noc(C3CCN(C4CCOCC4)CC3)n2)c2c(F)c(F)ccc12 [Example 454, 6,7-difluoro-3-(propan-2-yl)-1-{5-[1-(tetrahydro-2H-pyran-4-yl)piperidin-4-yl]-1,2,4-oxadiazol-3-yl}-1H-indazole trifluoroacetate] | 
11 |  |  | 94.6 | CC(=O)N1CCC(CN2CCC(c3nc(-n4nc(C(C)C)c5ccc(C)cc54)no3)CC2)CC1 [Example 479, 1-{4-[(4-{3-[6-methyl-3-(propan-2-yl)-1H-indazol-1-yl]-1,2,4-oxadiazol-5-yl}piperidin-1-yl)methyl]piperidin-1-yl}ethanone trifluoroacetate] | 
12 |  |  | < 20 | CC(C)c1nn(-c2noc(C3CCN(CCC(=O)Nc4ccccc4)CC3)n2)c2c(F)cccc12 [Example 398, 3-(4-{3-[7-fluoro-3-(propan-2-yl)-1H-indazol-1-yl]-1,2,4-oxadiazol-5-yl}piperidin-1-yl)-N-phenylpropanamide] | 
13 |  |  | 383 | CC(=O)N1CCC(N2CCC(c3nc(-n4nc(C(C)C)c5cc(Cl)ccc54)no3)CC2)CC1 [Example 409, 1-(4-{3-[5-chloro-3-(propan-2-yl)-1H-indazol-1-yl]-1,2,4-oxadiazol-5-yl}-1,4′-bipiperidin-1′-yl)ethanone] | 
14 |  |  | 26.9 | CC(C)c1nn(-c2noc(C3CCN(CCCOc4ccccc4)CC3)n2)c2c(F)cccc12 [Example 395, 7-fluoro-1-{5-[1-(3-phenoxypropyl)piperidin-4-yl]-1,2,4-oxadiazol-3-yl}-3-(propan-2-yl)-1H-indazole] | 
15 |  |  | 190 | CC(=O)N1CCC(N2CCC(c3nc(-n4nc(C(C)C)c5ccc(O)c(F)c54)no3)CC2)CC1 [Example 554, 1-(4-{3-[7-fluoro-6-hydroxy-3-(propan-2-yl)-1H-indazol-1-yl]-1,2,4-oxadiazol-5-yl}-1,4′-bipiperidin-1′-yl)ethanone] | 
16 |  |  | 179 | CC(C)c1nn(-c2noc(C3CCN(C4CCN(C(=O)CO)CC4)CC3)n2)c2c(F)c(O)ccc12 [Example 552, 1-(4-{3-[7-fluoro-6-hydroxy-3-(propan-2-yl)-1H-indazol-1-yl]-1,2,4-oxadiazol-5-yl}-1,4′-bipiperidin-1′-yl)-2-hydroxyethanone] | 
17 |  |  | < 20 | CCc1nn(-c2noc(C3CCN(C4CCC4)CC3)n2)c2c(F)c(F)ccc12 [Example 446, 1-[5-(1-cyclobutylpiperidin-4-yl)-1,.2,4-oxadiazol-3-yl]-3-ethyl-6,7-difluoro-1H-indazole-trifluoroacetate] | 
18 |  |  | 93.7 | C=C(C)c1nn(-c2noc(C3CCN(C4CCN(C(=O)CO)CC4)CC3)n2)c2c(F)cccc12 [Example 521, 1-(4-{3-[7-fluoro-3-(prop-1-en-2-yl)-1H-indazol-1-yl]-1,2,4-oxadiazol-5-yl}-1,4′-bipiperidin-1'-yl)-2-hydroxyethanone hydrochloride] | 
19 |  |  | 55 | CC(C)c1nn(-c2noc(C3CCN(C4CCOCC4)CC3)n2)c2cccc(Cl)c12 [Example 422, 4-chloro-3-(propan-2-yl)-1-{5-[1-(tetrahydro-2H-pyran-4-yl)piperidin-4-yl]-1,2,4-oxadiazol-3-yl}-1H-indazole] | 
20 |  |  | 653 | CCCCN1CCC(c2ncc(-n3nc(C(C)C)c4cccc(F)c43)s2)CC1 [Example 564, 1-[2-(1-butylpiperidin-4-yl)-1,3-thiazol-5-yl]-7-fluoro-3-(propan-2-yl)-1H-indazole] | 
21 |  |  | 68.7 | CC(=O)N1CCC(N2CCC(c3nc(-n4nc(C(F)(F)F)c5cccc(F)c54)no3)CC2)CC1 [Example 406, 1-(4-{3-[7-fluoro-3-(trifluoromethyl)-1H-indazol-1-yl]-1,2,4-oxadiazol-5-yl}-1,4′-bipiperidin-1′-yl)ethanone] | 
22 |  |  | 28.1 | CC(C)c1nn(-c2noc(C3CCN(CC4CCOCC4)CC3)n2)c2c(F)c(F)ccc12 [Example 453, 6,7-difluoro-3-(propan-2-yl)-1-{5-[1-(tetrahydro-2H-pyran-4-ylmethyl)piperidin-4-yl]-1,2,4-oxadiazol-3-yl}-1H-indazole trifluoroacetate] | 

Row | Structure (SMILES) | Emax (human 5-HT4b receptor) [%] | EC50 (human 5-HT4b receptor) [nM] | IC50 (5-HT4 receptor; [1]) [nM] | IC50 (5-HT4 receptor) [nM]
23 | CC(=O)N1CCC(N2CCC(O)(c3nc(-n4nc(C(C)C)c5cccc(F)c54)no3)CC2)CC1 [Example 457, 1-(4-{3-[7-fluoro-3-(propan-2-yl)-1H-indazol-1-yl]-1,2,4-oxadiazol-5-yl}-4-hydroxy-1,4′-bipiperidin-1′-yl)ethanone] | 72.2 | 12.7 |  | 85.3
